In assay [1] the target is FLAG-tagged Vanin-1 (AA 22-493, T26I) (Homo sapiens (Human), UniProt O95497, T26I). The assay can be described thus: Vanin-1 enzymatic assay (pantothenic acid formation, RapidFire Mass Spectrometry). Type of assay: biochemical. Particulars: read-out: VNN 1 IC50. On the procedure:
The test compounds are dissolved in 100% DMSO at a concentration of 10 mM and in a first step diluted in DMSO to a concentration of 5 mM, followed by serial dilution steps in 100% DMSO. Dilution factor and number of dilution steps may vary according to needs. Typically 8 different concentrations by 1:5 dilutions are prepared, a further intermediate dilutions of the substances is carried out with assay buffer resulting in 1% final DMSO concentration in the assay.
Method 1): 0.15 nM of FLAG-tagged Vanin-1 (AA 22-493, T26I, produced internally) and test compounds are incubated at room temperature for 15 minutes in assay buffer (1 mM DTT, 0.0025% Brij-35, 50 mM HEPES, pH7.5). 3 μM D-Pantethine (Sigma, Cat#P2125-5G) in assay buffer is added and incubated for additional 30 minutes at room temperature. Reaction is stopped by adding equal volume of stop solution as the reaction mixture to reach 5 nM Nevirapine (as an internal standard) and 0.5% TFA. Assay plates are centrifuged for 2 minutes and the formation of pantothenic acid is detected by RapidFire Mass Spectrometry (mobile phase A: 0.1% formic acid in water, mobile phase B: 100% methanol) using graphitic carbon cartridge (Agilent Cat #G9206A).
Method 2): 0.1 nM of FLAG-tagged Vanin-1 (AA 22-493, T26I, produced internally) and test compounds are incubated at room temperature for 20 minutes in assay buffer (1 mM DTT, 0.0025% Brij-35, 50 mM HEPES, pH7.5). D-Pantethine (Sigma, Cat#P2125-5G) in assay buffer is added (final concentration 3 μM) and incubated for additional 30 minutes at room temperature. Total assay volume typically is 40 μl but might be adjusted according to needs. Reaction is stopped by adding equal volume of stop solution as the reaction mixture to reach 100 nM HD-pantothenic acid (as an internal standard) and 1% TFA. Assay plates are centrifuged for 2 minutes and the formation of pantothenic acid is detected by RapidFire Mass Spectrometry (mobile phase A: 0.1% formic acid and 0.01% trifluoroacetic acid in water; mobile phase B: 47.5% acetonitrile, 47.5% methanol, 0.1% formic acid and 0.01% trifluoroacetic acid in water) using a C18, 12 μL cartridge (Agilent Cat #G9205A).
The values given in Table I result from measurements of one or more samples. In case of multiple measurements the geometric mean values determined by method 1 and/or method 2 are given.

For assay [2], the system named is human whole blood. Description: Human Whole Blood assay (HWB; pantothenic acid formation from D-Pantethine). Type of assay: cell-based. Particulars: 10 μM D-Pantethine, 30 minutes at room temperature, geometric mean if multiple measurements. On the procedure:
250 μl human whole blood and 7 μl pre-diluted compound in RPMI 1640 media are incubated at room temperature for 15 minutes on an orbital shaker. 10 μl of D-Pantethine (Sigma, Cat#P2125-5G) is added, resulting in 10 μM final concentration, for additional 30 minutes incubation at room temperature. The reaction is stopped by placed on ice for 5 minutes. Assay plates are centrifuged at 1800 rpm at 4° C. for 10 minutes. 80 μl of plasma is mixed with 80 μl of ice-cold acetonitrile and is left on ice for 5 minutes. The reaction mixture is centrifuged at 4000 rpm for 10 min at 4° C. 50 μl of the supernatant is mixed with 150 μl of ice-cold H2O. The above solution is mixed with equal volume of stop solution to reach 5 nM Nevirapine (as an internal standard) and 0.4% TFA. The mixture is centrifuged at 4000 rpm for 10 minutes. The formation of pantothenic acid is detected by RapidFire Mass Spectrometry (mobile phase A: 0.1% Formic acid in water, mobile phase B: 100% Methanol) using graphitic carbon cartridge (Agilent Cat #G9206A). Please see Table I for results. The values given in Table I result from measurements of one or more samples. In case of multiple measurements the geometric mean values are given.

[3] abbreviates: VNN1-assay methods 1 + 2: geometric mean of values determined by method 1 and method 2.
Setting [4] is: VNN1-assay method 2: 0.1 nM Vanin-1, 20 min preincubation, 3 μM D-Pantethine, geometric mean if multiple measurements.
[5] abbreviates: VNN1-assay method 1: 0.15 nM Vanin-1, 15 min preincubation, 3 μM D-Pantethine, geometric mean if multiple measurements.

Molecules are shown by their SMILES. Like-named read-outs stand apart in the source and are kept apart here.

FLAG-tagged Vanin-1 (AA 22-493, T26I), sequence (O95497 22-493 T26I): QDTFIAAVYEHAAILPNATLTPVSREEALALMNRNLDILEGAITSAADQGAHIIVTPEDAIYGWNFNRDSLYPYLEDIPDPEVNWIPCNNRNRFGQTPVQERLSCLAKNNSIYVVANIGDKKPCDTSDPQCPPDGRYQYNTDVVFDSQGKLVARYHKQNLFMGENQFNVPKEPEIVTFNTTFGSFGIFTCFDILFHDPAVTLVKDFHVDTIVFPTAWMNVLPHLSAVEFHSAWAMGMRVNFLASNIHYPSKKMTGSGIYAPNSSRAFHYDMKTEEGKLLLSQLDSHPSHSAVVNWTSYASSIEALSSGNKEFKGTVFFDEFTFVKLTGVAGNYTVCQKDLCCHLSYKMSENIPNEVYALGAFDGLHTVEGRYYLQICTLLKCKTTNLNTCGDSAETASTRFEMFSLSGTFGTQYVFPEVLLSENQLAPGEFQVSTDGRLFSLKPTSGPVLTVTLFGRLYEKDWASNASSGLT

With `CC(=O)N(C)[C@H]1CCN(C(=O)c2cnc3c(c2)OC[C@@H](C)N3)C1` [Example 29], the IC50 in assay [1] (setting [3]) stood at 3.3 nM; in assay [2] (Homo sapiens, 0.5 h), 28 nM. For `CC(=O)N(C)[C@H]1CCN(C(=O)c2cnc3c(c2)O[C@H](C)CN3)C1` [Example 32], in assay [2] (Homo sapiens, 0.5 h), the IC50 is 14 nM. Turning to `CC[C@H]1COc2cc(C(=O)N3CCC(c4ccncc4)C3)cnc2N1` (some centres unmarked) [Example 5], the concentration for half-maximal inhibition (IC50) in assay [1] (setting [3]) is 3.1 nM; in assay [2] (Homo sapiens, 0.5 h), 76 nM.

`CN1C(=O)CC[C@@]12CCN(C(=O)c1cnc3c(c1)OCCC1(CC1)N3)C2` [Example 24]: the IC50 in assay [1] (setting [4]) is 0.6 nM; in assay [2] (Homo sapiens, 0.5 h) it was 6.5 nM. Regarding `CC(=O)N(C)[C@H]1CCN(C(=O)c2cnc3c(c2)O[C@H](CO)CN3)C1` [Example 41], in assay [2] (Homo sapiens, 0.5 h), the half-inhibitory concentration (IC50) amounted to 18 nM.

Take `CC[C@H]1COc2cc(C(=O)N3CC[C@H](N(C)C(C)=O)C3)cnc2N1` [Example 4]: the IC50 in assay [1] (setting [5]) was found to be 1.3 nM; in assay [2] (Homo sapiens, 0.5 h) it was 22 nM.

Turning to `CC(C)[C@@H]1COc2cc(C(=O)N3CCC(c4ccncc4)C3)cnc2N1` (some centres unmarked) [Example 8], the IC50 in assay [1] (setting [5]) turned out to be 17.2 nM.

`O=C(c1cnc2c(c1)OC[C@H](c1ccccc1)N2)N1CCC(c2ccncc2)C1` (single isomer, unassigned) [Example 12]: the IC50 in assay [1] (setting [5]) is 1.8 nM; in assay [2], 330 nM. On to `CN(C(=O)C1CC1)[C@H]1CCN(C(=O)c2cnc3c(c2)OCC2(CC2)N3)C1` [Example 17], for which the half-inhibitory concentration (IC50) was determined as 0.7 nM in assay [1] (setting [4]) and 8.8 nM in assay [2] (Homo sapiens, 0.5 h).

With `CN([C@H]1CCN(C(=O)c2cnc3c(c2)OCC2(CC2)N3)C1)S(=O)(=O)C1CC1` [Example 19], the 50% inhibitory concentration (IC50) is 2.3 nM in assay [1] (setting [4]) and 39 nM in assay [2] (Homo sapiens, 0.5 h).

Regarding `CC(=O)N(C)[C@H]1CCN(C(=O)c2cnc3c(c2)OCCC2(CC2)N3)C1` [Example 37], the IC50 in assay [1] (setting [3]) was found to be 0.2 nM; in assay [2] (Homo sapiens, 0.5 h) it was 6.3 nM. With `CC(=O)N(C)[C@H]1CCN(C(=O)c2cnc3c(c2)OC[C@@H](c2ccccc2)N3)C1` [Example 31], the IC50 in assay [1] (setting [3]) came to 1750 nM. `CC[C@@H]1COc2cc(C(=O)N3CCC(c4ccncc4)C3)cnc2N1` (some centres unmarked) [Example 6]: the half-maximal inhibitory concentration (IC50) in assay [1] (setting [5]) turned out to be 8.9 nM; in assay [2] (Homo sapiens, 0.5 h) it was 99 nM.

Turning to `O=C(c1cnc2c(c1)OCCN2)N1CCC(c2ccncc2)C1` (centres unmarked) [Example 38], the IC50 in assay [2] (Homo sapiens, 0.5 h) was 210 nM. Turning to `CC(=O)N(C)[C@H]1CCN(C(=O)c2cnc3c(c2)OC[C@H](C)N3)C1` [Example 13], the concentration for half-maximal inhibition (IC50) was 1.8 nM in assay [1] (setting [3]) and 23 nM in assay [2] (Homo sapiens, 0.5 h). With `O=C(c1cnc2c(c1)OC[C@H](c1ccccc1)N2)N1CCC(c2ccncc2)C1` (single isomer, unassigned) [Example 11], the IC50 amounted to 19 nM in assay [1] (setting [5]) and 3700 nM in assay [2]. For `O=C(c1cnc2c(c1)OCCC1(CC1)N2)N1CC[C@H](N2CCOC2=O)C1` [Example 26], the IC50 in assay [1] (setting [4]) stood at 0.2 nM; in assay [2] (Homo sapiens, 0.5 h), 5.9 nM. For the compound `O=C(c1cnc2c(c1)OC[C@@H](c1ccccc1)N2)N1CCC(c2ccncc2)C1` (some centres unmarked) [Example 7], the IC50 in assay [1] (setting [5]) came out at 6200 nM.

Take `CC(=O)N(C)[C@H]1CCN(C(=O)c2cnc3c(c2)OCCN3)C1` [Example 39]: the IC50 in assay [2] (Homo sapiens, 0.5 h) was 120 nM. On the same count and under the same terms, under `CC(=O)N(C)[C@H]1CCN(C(=O)c2cnc3c(c2)OCCCN3)C1` [Example 44] stands 23 nM. On to `C[C@H]1COc2cc(C(=O)N3CCC(c4ccncc4)C3)cnc2N1` (some centres unmarked) [Example 40], for which the concentration for half-maximal inhibition (IC50) in assay [1] (setting [3]) was 1.7 nM; in assay [2] (Homo sapiens, 0.5 h), 87 nM. As for `CN(C(=O)C1COC1)[C@H]1CCN(C(=O)c2cnc3c(c2)OCC2(CC2)N3)C1` [Example 18], the IC50 came out at 0.9 nM in assay [1] (setting [4]) and 12 nM in assay [2] (Homo sapiens, 0.5 h). Turning to `O=C(c1cnc2c(c1)OCC1(CC1)N2)N1CCC(c2ccncc2)C1` (single isomer, unassigned) [Example 22], the IC50 in assay [1] (setting [5]) is 0.4 nM; in assay [2], 37 nM.

Turning to `CN1C(=O)CCC12CCN(C(=O)c1cnc3c(c1)OCCC1(CC1)N3)C2` (centres unmarked) [Example 27], the IC50 turned out to be 1.09 nM in assay [1] (setting [4]) and 11 nM in assay [2] (Homo sapiens, 0.5 h). For `O=C(c1cnc2c(c1)OCC1(CC1)N2)N1CCC(c2ccncc2)C1` (single isomer, unassigned) [Example 20], the results for the IC50 in assay [1] (setting [5]) and in assay [2] were 1.9 nM and 130 nM, respectively. In the case of `C[C@H]1CNc2ncc(C(=O)N3CCC(c4ccncc4)C3)cc2O1` (some centres unmarked) [Example 34], the 50% inhibitory concentration (IC50) was found to be 3.5 nM in assay [1] (setting [3]) and 44 nM in assay [2] (Homo sapiens, 0.5 h). For `CC[C@@H]1COc2cc(C(=O)N3CC[C@H](N(C)C(C)=O)C3)cnc2N1` [Example 1], in that order: 3.3 nM and 20 nM. `C[C@@H]1COc2cc(C(=O)N3CCC(c4cccnc4)C3)cnc2N1` (some centres unmarked) [Example 28]: the IC50 in assay [1] (setting [5]) was found to be 3.8 nM; in assay [2] (Homo sapiens, 0.5 h), 168 nM. Regarding `O=C(c1cnc2c(c1)O[C@H](CO)CN2)N1CCC(c2ccncc2)C1` (some centres unmarked) [Example 43], the IC50 in assay [2] (Homo sapiens, 0.5 h) was 66 nM. On to `O=C(c1cnc2c(c1)OCC1(CC1)N2)N1CC[C@H](N2CCOC2=O)C1` [Example 16], for which the IC50 was 0.6 nM in assay [1] (setting [4]) and 8.9 nM in assay [2] (Homo sapiens, 0.5 h).

Consider `CC(C)[C@H]1COc2cc(C(=O)N3CCC(c4ccncc4)C3)cnc2N1` (some centres unmarked) [Example 10], for which the IC50 in assay [1] (setting [5]) was 2.4 nM; in assay [2] (Homo sapiens, 0.5 h) it was 146 nM.

Take `CC(=O)N(C)[C@H]1CCN(C(=O)c2cnc3c(c2)OCC2(CC2)N3)C1` [Example 21]: the IC50 in assay [1] (setting [3]) stood at 0.4 nM; in assay [2] (Homo sapiens, 0.5 h) it was 10 nM. Regarding `O=C(c1cnc2c(c1)OCCC1(CC1)N2)N1CC[C@H](N2CCCC2=O)C1` [Example 25], the IC50 in assay [1] (setting [4]) amounted to 0.1 nM; in assay [2] (Homo sapiens, 0.5 h), 3.1 nM.

Consider `CN1C(=O)CC[C@]12CCN(C(=O)c1cnc3c(c1)OCCC1(CC1)N3)C2` [Example 23], for which the IC50 in assay [1] (setting [4]) worked out at 8.1 nM; in assay [2] (Homo sapiens, 0.5 h), 50 nM. Take `CC(=O)N(C)[C@H]1CCN(C(=O)c2cnc3c(c2)OC[C@@H](C(C)C)N3)C1` [Example 2]: the IC50 is 3.6 nM in assay [1] (setting [5]) and 26 nM in assay [2] (Homo sapiens, 0.5 h).

In the case of `CC(=O)N(C)[C@H]1CCN(C(=O)c2cnc3c(c2)OCC(C)(C)N3)C1` [Example 14], in assay [2] (Homo sapiens, 0.5 h), the IC50 was found to be 12 nM. With `CC(=O)N(C)[C@H]1CCN(C(=O)c2cnc3c(c2)OC[C@H](c2ccccc2)N3)C1` [Example 30], the IC50 stood at 2.4 nM in assay [1] (setting [3]) and 43 nM in assay [2] (Homo sapiens, 0.5 h). The like results for `CC(=O)N(C)[C@H]1CCN(C(=O)c2cnc3c(c2)O[C@@H](C)CN3)C1` [Example 35] were, in that order, 26.1 nM and 190 nM. Consider `O=C(c1cnc2c(c1)OCC1(CC1)N2)N1CC[C@H](N2CCCC2=O)C1` [Example 15], for which the IC50 in assay [1] (setting [4]) was 0.7 nM; in assay [2] (Homo sapiens, 0.5 h), 7.8 nM. In the case of `C[C@@H]1CNc2ncc(C(=O)N3CCC(c4ccncc4)C3)cc2O1` (some centres unmarked) [Example 33], the IC50 in assay [1] (setting [5]) stood at 2.5 nM; in assay [2] (Homo sapiens, 0.5 h) it was 34 nM. Turning to `CC(=O)N(C)[C@H]1CCN(C(=O)c2cnc3c(c2)OCC(C)(C)CN3)C1` [Example 42], the IC50 came to 1.1 nM in assay [1] (setting [3]) and 16 nM in assay [2] (Homo sapiens, 0.5 h). Regarding `CC(=O)N(C)[C@H]1CCN(C(=O)c2cnc3c(c2)OC[C@H](C(C)C)N3)C1` [Example 9], the IC50 was determined as 1.5 nM in assay [1] (setting [5]) and 23 nM in assay [2] (Homo sapiens, 0.5 h).
